Here are results for eleven compounds from patent publication US6133292A, “Diaryl-5-alkyl-5-methyl-2-(5H)-furanones as selective cyclooxygenase-2-inhibitors” (Merck Frosst Canada & Co., priority 1998, dated 2000).

The target in one test is T1, COX-2 (Homo sapiens, UniProt P35354).
T1 sequence (P35354 18-604): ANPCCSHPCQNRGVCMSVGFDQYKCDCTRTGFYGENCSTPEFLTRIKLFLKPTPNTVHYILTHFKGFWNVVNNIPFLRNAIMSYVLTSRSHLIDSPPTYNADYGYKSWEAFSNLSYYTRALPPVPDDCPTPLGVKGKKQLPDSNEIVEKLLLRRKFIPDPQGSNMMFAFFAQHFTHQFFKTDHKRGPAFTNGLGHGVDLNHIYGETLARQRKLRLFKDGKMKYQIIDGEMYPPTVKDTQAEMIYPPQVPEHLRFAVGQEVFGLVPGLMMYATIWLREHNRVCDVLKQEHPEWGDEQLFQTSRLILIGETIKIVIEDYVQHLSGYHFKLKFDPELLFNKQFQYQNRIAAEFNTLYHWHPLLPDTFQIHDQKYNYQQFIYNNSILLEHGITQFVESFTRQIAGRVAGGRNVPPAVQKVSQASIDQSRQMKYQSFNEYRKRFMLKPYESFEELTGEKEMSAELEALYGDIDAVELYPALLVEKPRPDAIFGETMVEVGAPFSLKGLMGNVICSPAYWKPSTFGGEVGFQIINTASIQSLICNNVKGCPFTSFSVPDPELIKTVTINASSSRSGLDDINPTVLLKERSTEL
Kind of test: Whole cell assay for COX-2 using CHO transfected cell line (CHO [hCOX-2]). Details: expressed in transfected cells; host or cells: Chinese hamster ovary (CHO) cells, stably transfected, CHO[hCOX-2]. As to conditions: CHO[hCOX-2] cells, 10 μM AA; read-out: CHO Cox-2 (IC50, inhibition of PGE2 production). It is filed as cell-based. The text has this:
Whole cell assays for COX-2 and COX-1 using CHO transfected cell lines
Chinese hamster ovary (CHO) cell lines which have been stably transfected with an eukaryotic expression vector pCDNAIII containing either the human COX-1 or COX-2 cDNA's are used for the assay. These cell lines are referred to as CHO [hCOX-1] and CHO [hCOX-2], respectively. For cyclooxygenase assays, CHO[hCOX-1] cells from suspension cultures and CHO[hCOX-2] cells prepared by trypsinization of adherent cultures are harvested by centrifugation (300 x g, 10 min) and washed once in HBSS containing 15 mM HEPES, pH 7.4, and resuspended in HBSS, 15 mM HEPES, pH 7.4, at a cell concentration of 1.5×10^6 cells/ml. Drugs to be tested are dissolved in DMSO to 66.7-fold the highest test drug concentration. Compounds are typically tested at 8 concentrations in duplicate using serial 3-fold serial dilutions in DMSO of the highest drug concentration. Cells (0.3×10^6 cells in 200 μl) are preincubated with 3 μl of the test drug or DMSO vehicle for 15 min at 37° C. Working solutions of peroxide-free AA (5.5 μM and 110 μM AA for the CHO [hCOX-1] and CHO [COX-2] assays, respectively) are prepared by a 10-fold dilution of a concentrated AA solution in ethanol into HBSS containing 15 mM HEPES, pH 7.4. Cells are then challenged in the presence or absence of drug with the AA/HBSS solution to yield a final concentration of 0.5 μM AA in the CHO[hCOX-1] assay and a final concentration of 10 μM AA in the CHO[hCOX-2] assay. The reaction is terminated by the addition of 10 μl 1 N HCl followed by neutralization with 20 μl of 0.5 N NaOH. The samples are centrifuged at 300 x g at 4° C. for 10 min, and an aliquot of the clarified supernatant is appropriately diluted for the determination of PGE2 levels using an enzyme-linked immunoassay for PGE2 (Correlate PGE2 enzyme immunoassay kit, Assay Designs, Inc.). Cyclooxygenase activity in the absence of test compounds is determined as the difference in PGE2 levels of cells challenged with arachidonic acid versus the PGE2 levels in cells mock-challenged with ethanol vehicle. Inhibition of PGE2 synthesis by test compounds is calculated as a percentage of the activity in the presence of drug versus the activity in the positive control samples.
Compounds of the present invention are inhibitors of COX-2 and are thereby useful in the treatment of COX-2 mediated diseases as enumerated above. The activities of the compounds against cyclooxygenase may be seen in the representative results shown below. In the assay, inhibition is determined by measuring the amount of prostaglandin E2 (PGE2) synthesized in the presence of arachidonic acid, COX-1 or COX-2 and a putative inhibitor. The IC50 values represent the concentration of putative inhibitor required to lower PGE2 synthesis to 50% of that obtained as compared to the uninhibited control.

Another test deals with COX-1 (Homo sapiens, UniProt P23219). Kind of test: Human whole blood assay, COX-1 (clotting-induced TxB2 production). It is filed as cell-based. As to conditions: clotting-induced TxB2, 1 hour at 37° C, read-out: HWB Cox-1 (IC50). Details: platelets in whole blood contain a large amount of the COX-1 enzyme; from tissue; host or cells: fresh human whole blood without anticoagulant, platelets. As for the experimental part: Human whole blood provides a protein and cell-rich milieu appropriate for the study of biochemical efficacy of anti-inflammatory compounds such as selective COX-2 inhibitors. […] This is consistent with the observation that COX-2 inhibitors have no effect on PGE2 production in normal blood. These inhibitors are active only after incubation of human whole blood with LPS, which induces COX-2. This assay can be used to evaluate the inhibitory effect of selective COX-2 inhibitors on PGE2 production. As well, platelets in whole blood contain a large amount of the COX-1 enzyme. Immediately following blood clotting, platelets are activated through a thrombin-mediated mechanism. This reaction results in the production of thromboxane B2 (TXB2) via activation of COX-1. Thus, the effect of test compounds on TxB2 levels following blood clotting can be examined and used as an index for COX-1 activity. Therefore, the degree of selectivity by the test compound can be determined by measuring the levels of PGE2 after LPS induction (COX-2) and TxB2 following blood clotting (COX-1) in the same assay.
Sequence of COX-1 (P23219 24-599): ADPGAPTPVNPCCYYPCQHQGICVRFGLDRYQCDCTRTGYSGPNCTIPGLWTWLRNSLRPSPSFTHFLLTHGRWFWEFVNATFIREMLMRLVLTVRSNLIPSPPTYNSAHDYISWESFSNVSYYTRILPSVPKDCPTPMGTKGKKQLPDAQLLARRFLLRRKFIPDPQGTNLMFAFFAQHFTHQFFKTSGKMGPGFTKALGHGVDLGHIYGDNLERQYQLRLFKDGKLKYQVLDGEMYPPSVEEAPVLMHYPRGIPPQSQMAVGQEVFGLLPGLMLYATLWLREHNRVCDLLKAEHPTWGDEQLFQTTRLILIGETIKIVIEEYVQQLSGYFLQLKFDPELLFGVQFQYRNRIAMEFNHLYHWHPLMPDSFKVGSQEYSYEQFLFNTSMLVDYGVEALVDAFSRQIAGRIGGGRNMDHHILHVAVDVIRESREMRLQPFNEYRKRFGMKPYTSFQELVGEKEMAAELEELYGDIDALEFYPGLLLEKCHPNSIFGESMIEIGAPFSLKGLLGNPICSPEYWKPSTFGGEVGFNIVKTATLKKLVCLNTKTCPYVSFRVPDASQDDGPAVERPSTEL
B. COX-1 (Clotting-induced TxB2 production)
Fresh blood is collected into vacutainers containing no anticoagulants. […] The tubes are vortexed and incubated at 37° C. for 1 hour to allow blood to clot. At the end of incubation, serum is obtained by centrifugation (12,000 x g for 5 min.). A 100 μL aliquot of serum is mixed with 400 μL of methanol for protein precipitation. The supernatant is obtained and is assayed for TxB2 using a enzyme immunoassay kit (Cayman, #519031) according to the manufacturer's instruction. […]

As usually defined, the IC50 is the concentration needed to halve the response being measured. Turning to `CCCC1(C)OC(=O)C(c2ccc(F)c(F)c2)=C1c1ccc(S(C)(=O)=O)cc1` (stereo not drawn) [p, 3-(3,4-difluorophenyl)-5-methyl-4-[4-(methylsulfonyl)phenyl]-5-propyl-2,5-dihydro-2-furanone], the IC50 at COX-2 turned out to be 237 nM.

Take `CC[C@@]1(C)OC(=O)C(c2ccc(F)c(F)c2)=C1c1ccc(S(C)(=O)=O)cc1` [h, (5R)-3-(3,4-difluorophenyl)-5-ethyl-5-methyl-4-[4-(methylsulfonyl)phenyl] -2,5-dihydro-2-furanone]: the 50% inhibitory concentration (IC50) on COX-2 was found to be 51 nM; at COX-1 it was 76000 nM.

In the case of `CC1(C)OC(=O)C(c2ccc(F)cc2)=C1c1ccc(S(C)(=O)=O)cc1` [Compound T3-1, 3-(4-fluorophenyl)-5,5-dimethyl-4-[4-(methylsulfonyl)phenyl]-2,5-dihydro-2-furanone, reference compound], the figures for the IC50 on COX-2 and on COX-1 were 42 nM and 86100 nM, respectively.

As for `CCC1(CC)OC(=O)C(c2ccccc2)=C1c1ccc(S(C)(=O)=O)cc1` [t, 5,5-diethyl-4-[4-(methylsulfonyl)phenyl]-3-phenyl-2,5-dihydro-2-furanone, reference compound], on COX-2, the IC50 is over 5000 nM.

Consider `CCC1(CC)OC(=O)C(c2ccc(F)cc2)=C1c1ccc(S(C)(=O)=O)cc1` [u, 5,5-diethyl-3-(4-fluorophenyl)-4-[4-(methylsulfonyl)phenyl]-2,5-dihydro-2-furanone, reference compound], for which, at COX-2, the IC50 was over 5000 nM.

Take `CC[C@]1(C)OC(=O)C(c2ccc(F)cc2)=C1c1ccc(S(C)(=O)=O)cc1` [d, (5S)-5-ethyl-3-(4-fluorophenyl)-5-methyl-4-[4-(methylsulfonyl)phenyl]-2,5-dihydro-2-furanone]: the IC50 at COX-2 worked out at 57 nM; at COX-1, 8300 nM.

As to `CC[C@]1(C)OC(=O)C(c2ccc(F)c(F)c2)=C1c1ccc(S(C)(=O)=O)cc1` [i, (5S)-3-(3,4-difluorophenyl)-5-ethyl-5-methyl-4-[4-(methylsulfonyl)phenyl] -2,5-dihydro-2-furanone], the 50% inhibitory concentration (IC50) at COX-2 was 42 nM; at COX-1 it was 46400 nM.

For the compound `CC[C@@]1(C)OC(=O)C(c2ccc(F)cc2)=C1c1ccc(S(C)(=O)=O)cc1` [e, (5R)-5-ethyl-3-(4-fluorophenyl)-5-methyl-4-[4-(methylsulfonyl)phenyl]-2,5-dihydro-2-furanone], the IC50 on COX-2 was found to be 20 nM; at COX-1 it was 46000 nM.

`CCCC1(C)OC(=O)C(c2ccc(F)cc2)=C1c1ccc(S(C)(=O)=O)cc1` (stereo not drawn) [n, 3-(4-fluorophenyl)-5-methyl-4-[4-(methylsulfonyl)phenyl]-5-propyl-2,5-dihydro-2-furanone]: the IC50 at COX-2 was 194 nM; on COX-1, over 90000 nM.

Regarding `CCC1(C)OC(=O)C(c2ccc(F)cc2)=C1c1ccc(S(C)(=O)=O)cc1` (stereo not drawn) [c, 5-ethyl-3-(4-fluorophenyl)-5-methyl-4-[4-(methylsulfonyl)phenyl]-2,5-dihydro-2-furanone], the IC50 at COX-2 was 22 nM; at COX-1, over 30000 nM.

With `CCCC1(C)OC(=O)C(c2cccc(F)c2)=C1c1ccc(S(C)(=O)=O)cc1` (stereo not drawn) [o, 3-(3-fluorophenyl)-5-methyl-4-[4-(methylsulfonyl)phenyl]-5-propyl-2,5-dihydro-2-furanone], the IC50 on COX-2 was determined as 692 nM.
